The subject of assay [1] is autophagy level in HEK293 GFP-LC3 stably transfected cells. The assay is described as follows: Inhibition of autophagy level in HEK293 GFP-LC3 stably transfected cells (GFP fluorescence, high-content imaging). The format is cell-based. The note with it: Homo sapiens, Torin1 100 nM, 24 h incubation, 8 concentrations, highest 10 µM, read-out: Autophagic Flux IC50. The method, then:
The inhibitory effect of the compound of the present disclosure on intracellular autophagy was evaluated by testing the impact of the compound of the present disclosure on the fluorescence intensity of HEK293 GFP-LC3 stably transfected cells.
HEK293 GFP-LC3 stably transfected cells (HEK293, ATCC, CRL-1573) were cultured in a complete medium, namely, a DMEM medium (Gibco, 11965-092) containing 10% fetal bovine serum (Corning, 35-081-CV), 1% double antibody (Gibco, 15140-122) and 1 µg/mL of Puromycin (Invitrogen- A1113803).
Cell plating: HEK293 GFP-LC3 stably transfected cells at 80% growth confluence were digested, diluted with a medium free of Puromycin, and added to a 96-well cell culture plate (Geriner, 655090) at 12,000 cells per well, with a volume of 90 µL.
Compound incubation: 5 µL of Torin1 and 5 µL of a serially diluted compound were added to each well so that the highest concentration of the compound in the reaction system was 10 µM. 3-fold serial dilution with 8 concentrations was performed, and the final concentration of Torin1 was 100 nM. The DMSO content in the system was 0.1%. The positive control wells (PC) contain DMSO at a final concentration of 0.1%, and the negative control wells (NC) contain 100 nM of Torin1 with 0.1% of DMSO. The reaction plate was placed in an incubator at 37°C in 5% CO2, and was incubated for 24 h.
Cell staining and fixation: The cell plate was taken out, and 10 µL of Hochest33342 nuclear staining reagent (Thermo, H1399) was added to each well, followed by incubation at 37°C in 5% CO2 for 30 min. After the incubation was completed, the cell supernatant was discarded, and 100 µL of pre-cooled 4% paraformaldehyde was added to each well to fix the cells for 15 min. Then, the fixative was discarded, and 100 µL of PBS was added to each well. Images were captured for analysis using a high-content cell imaging analyzer (PE, Operetta CLS), and GFP fluorescence signals were collected for data processing.
The average GFP fluorescence signal intensity in the reaction wells was collected for the calculation of the inhibition ratio: [formula]
The dose-effect curve was fitted using the log(inhibitor) vs. response -Variable slope of Graphpad Prism8, thereby affording the IC50 value of each compound for inhibiting autophagy level in HEK293 GFP-LC3 stably transfected cells.

Assay [2] deals with T1, ULK1 (Homo sapiens, UniProt O75385).
T1 construct: purchased Promega V3521
T1 sequence (O75385 1-1050): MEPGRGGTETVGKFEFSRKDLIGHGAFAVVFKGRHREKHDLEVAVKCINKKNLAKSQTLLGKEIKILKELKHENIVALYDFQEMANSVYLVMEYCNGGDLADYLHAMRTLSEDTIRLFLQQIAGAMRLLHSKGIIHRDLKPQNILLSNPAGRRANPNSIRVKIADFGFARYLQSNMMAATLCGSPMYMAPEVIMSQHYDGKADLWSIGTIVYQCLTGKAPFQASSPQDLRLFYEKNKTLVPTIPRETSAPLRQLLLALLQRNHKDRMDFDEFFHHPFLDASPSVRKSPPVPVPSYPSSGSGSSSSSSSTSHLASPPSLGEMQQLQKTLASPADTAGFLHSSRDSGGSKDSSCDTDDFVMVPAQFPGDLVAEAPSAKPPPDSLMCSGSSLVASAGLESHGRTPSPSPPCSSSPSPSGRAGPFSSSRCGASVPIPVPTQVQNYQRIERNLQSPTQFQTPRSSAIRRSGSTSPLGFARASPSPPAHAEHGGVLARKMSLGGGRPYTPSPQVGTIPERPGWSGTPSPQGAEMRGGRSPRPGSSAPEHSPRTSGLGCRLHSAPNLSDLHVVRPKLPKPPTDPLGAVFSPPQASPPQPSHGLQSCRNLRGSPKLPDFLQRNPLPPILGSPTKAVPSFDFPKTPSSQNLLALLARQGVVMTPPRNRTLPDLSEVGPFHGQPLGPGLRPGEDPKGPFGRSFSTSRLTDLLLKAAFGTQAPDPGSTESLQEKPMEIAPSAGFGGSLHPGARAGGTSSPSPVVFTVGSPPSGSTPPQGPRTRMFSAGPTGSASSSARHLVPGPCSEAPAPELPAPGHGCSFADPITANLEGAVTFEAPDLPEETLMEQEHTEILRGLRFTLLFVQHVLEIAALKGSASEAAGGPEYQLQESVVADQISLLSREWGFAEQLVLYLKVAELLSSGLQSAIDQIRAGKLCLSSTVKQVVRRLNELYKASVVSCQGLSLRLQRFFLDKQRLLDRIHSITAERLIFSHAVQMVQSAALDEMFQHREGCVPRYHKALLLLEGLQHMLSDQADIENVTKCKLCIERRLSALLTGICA
The assay can be described thus: Inhibition of ULK1 protein activity (phosphorylation function), ADP-Glo method. The format is biochemical. The method, then: In this experiment, the inhibitory effect of a compound on the phosphorylation function of ULK1 was detected by ADP-Glo method. The inhibitory effect of the compound of the present disclosure on the ULK1 target was evaluated based on IC50.
Compound formulation: Using an ECHO (Beckman, ECHO650), the compound was serially diluted 3-fold in DMSO in a 384-well plate (PE, 6007290). A total of 10 concentration points were set, with the maximum concentration of the compound being 10 µM, and 50 nL per well. Positive control wells and negative control wells were added with 50 nL DMSO, respectively.
Reaction process: A 32 nM of ULK1 (Promega, V3521) solution was formulated, and 2.5 µL/well was transferred to the compound test wells and the negative control wells (NC). 2.5 µL/well of 1× Assay buffer was added to the positive control wells (PC). A mixed solution of 100 µM of ATP and 1.86 µM of MBP was formulated, and 2.5 µL/well was transferred to the reaction plate. After centrifugation, the reaction was initiated and incubated at room temperature for 60 min. After the reaction was completed, 5 µL/well of ADP-Glo Reagent (Promega, V9102) was added to the reaction plate. After centrifugation, the reaction was incubated at room temperature for 40 minutes. Finally, 10 µL/well of Kinase Detection Buffer was added, followed by centrifugation and incubation at room temperature for 30 min. The chemiluminescence value was read using Envision (PE, Envision2105).
Assay buffer: a reaction buffer; and Kinase Detection buffer: a detection buffer, both were taken from the ADP-Glodetection kit, purchased from Promega, model V9102.
The inhibition ratio of a compound on ULK1 activity was calculated using the following formula: [formula]
The dose-effect curve was fitted using the log(inhibitor) vs. response -Variable slope of the analysis software GraphPad Prism 8, thereby affording the IC50 value of each compound for enzyme activity.
For orientation: ADP-Glo first removes unused ATP, then detects ADP through luciferase.

By IC50 is commonly meant the midpoint of a concentration-inhibition curve. For the molecule `CN1CCN2c3ccc(Nc4ncc(C(F)(F)F)c(NCCCN5CCCCC5=O)n4)cc3COCC2C1` (stereo not shown) [Compound 11], the figures for the IC50 in assay [1] and in assay [2] were more than 1000 nM and less than 100 nM, respectively.
For `CN1CCN2c3ccc(Nc4ncc(C(F)(F)F)c(N5CCC(n6cccn6)CC5)n4)cc3COCC2C1` (stereo not shown) [Compound 4], in that order: 100 to 1000 nM and less than 100 nM.
For `CN1CCN2c3ccc(Nc4ncc(C(F)(F)F)c(N5CC6(CCN(C)C6)C5)n4)cc3COCC2C1` (stereo not shown) [Compound 20], the IC50 was more than 1000 nM in assay [1] and less than 100 nM in assay [2].
For `CN1CCN2c3ccc(Nc4ncc(C(F)(F)F)c(NC5CCN(C(=O)C6CCC6)CC5)n4)cc3COCC2C1` (stereo not shown) [Compound 21], in that order: 100 to 1000 nM and less than 100 nM.
`CN1CCN2c3ccc(Nc4ncc(C(F)(F)F)c(OCCCN5CCCCC5=O)n4)cc3OCC2C1` (stereo not shown) [Compound 12]: the IC50 in assay [1] is 100 to 1000 nM; in assay [2] it was less than 100 nM.
For `CN1CCN2c3ccc(Nc4ncc(C(F)(F)F)c(N5CCC6(CCN(C)C6)CC5)n4)cc3COCC2C1` (stereo not shown) [Compound 2], the IC50 was 100 to 1000 nM in assay [1] and less than 100 nM in assay [2].
With `CN1CCN2c3ccc(Nc4ncc(C(F)(F)F)c(N5CCN(C)C(=O)C5)n4)cc3COCC2C1` (stereo not shown) [Compound 1], the IC50 in assay [1] is more than 1000 nM; in assay [2], 100 to 1000 nM.
For `CN1CCN2c3ccc(Nc4ncc(C(F)(F)F)c(N[C@H]5CC[C@@H](n6cccn6)CC5)n4)cc3COCC2C1` (stereo partly shown) [Compound 6], in that order: 100 to 1000 nM and less than 100 nM.
As for `CN1CCN2c3ccc(Nc4ncc(C(F)(F)F)c(N5CC6(CN(C)C6)C5)n4)cc3COCC2C1` (stereo not shown) [Compound 22], the IC50 in assay [1] was more than 1000 nM; in assay [2] it was less than 100 nM.
For `CN1CCN2c3ccc(Nc4ncc(C(F)(F)F)c(OCCCc5ccccc5C#N)n4)cc3COCC2C1` (stereo not shown) [Compound 9], in that order: 100 to 1000 nM and less than 100 nM.
Regarding `CN1CCN2c3ccc(Nc4ncc(C(F)(F)F)c(NCCCn5cccn5)n4)cc3COCC2C1` (stereo not shown) [Compound 8], the IC50 in assay [1] is 100 to 1000 nM; in assay [2], less than 100 nM.
`CN1CCN2c3ccc(Nc4ncc(C(F)(F)F)c(OCCCn5cccn5)n4)cc3COCC2C1` (stereo not shown) [Compound 23]: the IC50 was 100 to 1000 nM in assay [1] and less than 100 nM in assay [2].
With `CN1CCN2c3ccc(Nc4ncc(C(F)(F)F)c(OCCCN5CCCCC5=O)n4)cc3COCC2C1` (stereo not shown) [Compound 3], the IC50 was 100 to 1000 nM in assay [1] and less than 100 nM in assay [2].
Take `CN1CCN2c3ccc(Nc4ncc(C(F)(F)F)c(N5CCC6(CCN(C)C6)C5)n4)cc3COCC2C1` (stereo not shown) [Compound 5]: the results for the IC50 in assay [1] and in assay [2] were 100 to 1000 nM and less than 100 nM, respectively.

For the origin of these results see patent EP4778931A1, “ULK1 INHIBITOR, PREPARATION METHOD THEREFOR AND USE THEREOF” (Dovetree Medicines Unus, Inc., priority 2023, dated 2025).
